Earlier results in US20070213318A1, “C[…] WITH IMPROVED BLOOD-BRAIN BARRIER PE[…] THE TREATMENT OF DISEASES ACCOMPANIED BY COGNITIVE IMPAIRMENT” (priority 2006, published 2007).
Read-outs that look alike come from different tables or passages of the source.

Assays:
human nAChR subtypes = details: below the concentration range at which AChE inhibition takes place

COc1ccc2c3c1O[C@H]1C[C@@H](O)C=C[C@@]31CCN(C)C2 [Galanthamine]
tissue to plasma ratio (T/P) (female rat spleen): ~20
tissue to plasma ratio (T/P) (male and female rat, kidney): 10-15
tissue to plasma ratio (T/P) (male and female rat, salivary and adrenal gland): 7-14
tissue to plasma ratio (T/P) (rat, lung, liver, heart, skeletal muscle and testes): 2-4
concentrations at which the APL effect is observed (human nAChR subtypes): submicromolar concentrations
